Results from patent US20180244699A1, “1-HYDROXY-3H-2,1-BENZOXABOROLE DERIVATIVES AND THEIR USE AS MICROBIOCIDES” (Syngenta Participations AG, priority 2015, published 2018).

Assays:
Pythium ultimum = Pythium ultimum / liquid culture (seedling damping off); type: cell-based; conditions: Globisporangium ultimum, growth inhibition photometrically 2-3 days after application, compared to untreated control
In short: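 Fungal mycelia fragments and oospores from fresh liquid culture mixed into potato dextrose broth and added to DMSO solutions of test compound. Incubated at 24° C.; growth inhibition read photometrically 2-3 days after application.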

[1] = test system: Mycosphaerella arachidis (Cercospora arachidicola); test: Mycosphaerella arachidis (Cercospora arachidicola) / liquid culture (early leaf spot); type: cell-based; conditions: growth inhibition photometrically 4-5 days after application, compared to untreated control
Experimental: 9. Mycosphaerella arachidis (Cercospora arachidicola)/Liquid Culture (Early Leaf Spot) Conidia of the fungus from cryogenic storage are directly mixed into nutrient broth (PDB potato dextrose broth). After placing a (DMSO) solution of test compound into a microtiter plate (96-well format), the nutrient broth containing the fungal spores is added. The test plates are incubated at 24° C. and the inhibition of growth is determined photometrically 4-5 days after application.

[2] = test system: Mycosphaerella graminicola (Septoria tritici); test: Mycosphaerella graminicola (Septoria tritici) / liquid culture (Septoria blotch); type: cell-based; conditions: Zymoseptoria tritici, growth inhibition photometrically 4-5 days after application, compared to untreated control
Experimental: 18. Mycosphaerella graminicola (Septoria tritici)/Liquid Culture (Septoria Blotch) Conidia of the fungus from cryogenic storage are directly mixed into nutrient broth (PDB potato dextrose broth). After placing a (DMSO) solution of test compound into a microtiter plate (96-well format), the nutrient broth containing the fungal spores is added. The test plates are incubated at 24° C. and the inhibition of growth is determined photometrically 4-5 days after application.

Gaeumannomyces graminis = Gaeumannomyces graminis / liquid culture (take-all of cereals); type: cell-based; conditions: growth inhibition photometrically 4-5 days after application, compared to untreated control
In short: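 Mycelial fragments from cryogenic storage in potato dextrose broth added to compound in DMSO, 96-well format. Incubated at 24° C; growth inhibition read photometrically 4-5 days after application.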

[3] = test system: Monographella nivalis (Microdochium nivale); test: Monographella nivalis (Microdochium nivale) / liquid culture (foot rot cereals); type: cell-based; conditions: growth inhibition photometrically 4-5 days after application, compared to untreated control
In short: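 Conidia from cryogenic storage were mixed into potato dextrose broth and added to wells holding test compound in DMSO. Incubation was at 24° C, with growth inhibition measured photometrically 4-5 days after application.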

Sclerotinia sclerotiorum = Sclerotinia sclerotiorum / liquid culture (cottony rot); type: cell-based; conditions: growth inhibition photometrically 3-4 days after application, compared to untreated control
Experimental: 17. Sclerotinia sclerotiorum/Liquid Culture (Cottony Rot) Mycelia fragments of a newly grown liquid culture of the fungus are directly mixed into nutrient broth (PDB potato dextrose broth). After placing a (DMSO) solution of test compound into a microtiter plate (96-well format) the nutrient broth containing the fungal material is added. The test plates are incubated at 24° C. and the inhibition of growth is determined photometrically 3-4 days after application.

[4] = test system: Glomerella lagenarium (Colletotrichum lagenarium); test: Glomerella lagenarium (Colletotrichum lagenarium) / liquid culture (anthracnose); type: cell-based; conditions: Colletotrichum orbiculare, growth inhibition photometrically 3-4 days after application, compared to untreated control
Experimental: 3. Glomerella lagenarium (Colletotrichum lagenarium)/Liquid Culture (Anthracnose) Conidia of the fungus from cryogenic storage are directly mixed into nutrient broth (PDB potato dextrose broth). After placing a (DMSO) solution of test compound into a microtiter plate (96-well format), the nutrient broth containing the fungal spores is added. The test plates are incubated at 24° C. and the inhibition of growth is measured photometrically 3-4 days after application.

[5] = test system: Thanatephorus cucumeris (Rhizoctonia solani); test: Thanatephorus cucumeris (Rhizoctonia solani) / liquid culture (foot rot, damping-off); type: cell-based; conditions: growth inhibition photometrically 3-4 days after application, compared to untreated control
Experimental: 16. Thanatephorus cucumeris (Rhizoctonia solani)/Liquid Culture (Foot Rot, Damping-Off) Mycelia fragments of a newly grown liquid culture of the fungus are directly mixed into nutrient broth (PDB potato dextrose broth). After placing a (DMSO) solution of the test compounds into a microtiter plate (96-well format), the nutrient broth containing the fungal material is added. The test plates are incubated at 24° C. and the inhibition of growth is determined photometrically 3-4 days after application.

[6] = test system: Puccinia recondite f. sp. tritici; test: Puccinia recondite f. sp. tritici / wheat / leaf disc preventative (brown rust); type: in vivo; conditions: foliar, wheat leaf segments, inoculated 1 day after application, compared to untreated control
Experimental: 13. Puccinia recondite f. Sp. Tritici/Wheat/Leaf Disc Preventative (Brown Rust) Wheat leaf segments cv. Kanzler are placed on agar in multiwell plates (24-well format) and sprayed with the formulated test compound diluted in water. The leaf disks are inoculated with a spore suspension of the fungus 1 day after application. The inoculated leaf segments are incubated at 19° C. and 75% rh under a light regime of 12 h light/12 h darkness in a climate cabinet and the activity of a compound is assessed as percent disease control compared to untreated when an appropriate level of disease damage appears in untreated check leaf segments (7-9 days after application).

CCOc1c(C(=O)OC)ccc2c1B(O)OC2 [Compound 4, methyl 7-ethoxy-1-hydroxy-3H-2,1-benzoxaborole-6-carboxylate]
≥ 80%: inhibition of growth at 20 ppm (Pythium ultimum) | inhibition of growth at 20 ppm [1] | inhibition of growth at 20 ppm [2] | inhibition of growth at 20 ppm (Gaeumannomyces graminis) | inhibition of growth at 20 ppm [3] | inhibition of growth at 20 ppm (Sclerotinia sclerotiorum) | inhibition of growth at 20 ppm [4] | inhibition of growth at 20 ppm [5]

COc1c(C(=O)NCc2ccccc2F)ccc2c1B(O)OC2 [Compound 5, N-[(2-fluorophenyl)methyl]-1-hydroxy-7-methoxy-3H-2,1-benzoxaborole-6-carboxamide]
≥ 80%: inhibition of growth at 20 ppm (Pythium ultimum) | pest or weed control at 200 ppm [6]

COc1c(C(=O)NCc2ccc(Cl)cc2)ccc2c1B(O)OC2 [Compound 6, N-[(4-chlorophenyl)methyl]-1-hydroxy-7-methoxy-3H-2,1-benzoxaborole-6-carboxamide]
≥ 80%: inhibition of growth at 20 ppm (Pythium ultimum) | inhibition of growth at 20 ppm (Gaeumannomyces graminis) | inhibition of growth at 20 ppm [3] | pest or weed control at 200 ppm [6]

COC(=O)c1ccc2c(c1OC(F)F)B(O)OC2 [Compound 16, methyl 7-(difluoromethoxy)-1-hydroxy-3H-2,1-benzoxaborole-6-carboxylate]
≥ 80%: inhibition of growth at 20 ppm (Pythium ultimum) | inhibition of growth at 20 ppm [1] | inhibition of growth at 20 ppm (Gaeumannomyces graminis) | inhibition of growth at 20 ppm (Sclerotinia sclerotiorum)

COc1c(C(=O)NCCc2ccccc2)ccc2c1B(O)OC2 [Compound 33, 1-hydroxy-7-methoxy-N-phenethyl-3H-2,1-benzoxaborole-6-carboxamide]
≥ 80%: inhibition of growth at 20 ppm [3] | pest or weed control at 200 ppm [6]

COc1c(C(=O)NC(C)C)ccc2c1B(O)OC2 [Compound 34, 1-hydroxy-N-isopropyl-7-methoxy-3H-2,1-benzoxaborole-6-carboxamide]
≥ 80%: inhibition of growth at 20 ppm (Pythium ultimum) | pest or weed control at 200 ppm [6]

COc1c(C(=O)Nc2cnoc2)ccc2c1B(O)OC2 [Compound 35, 1-hydroxy-N-isoxazol-4-yl-7-methoxy-3H-2,1-benzoxaborole-6-carboxamide]
≥ 80%: inhibition of growth at 20 ppm (Pythium ultimum) | pest or weed control at 200 ppm [6]

COc1c(C(=O)Nc2nnc(C(F)(F)F)s2)ccc2c1B(O)OC2 [Compound 64, 1-hydroxy-7-methoxy-N-[5-(trifluoromethyl)-1,3,4-thiadiazol-2-yl]-3H-2,1-benzoxaborole-6-carboxamide]
≥ 80%: inhibition of growth at 20 ppm (Pythium ultimum) | inhibition of growth at 20 ppm (Gaeumannomyces graminis) | inhibition of growth at 20 ppm [3] | inhibition of growth at 20 ppm (Sclerotinia sclerotiorum) | inhibition of growth at 20 ppm [4]

COC(=O)C#CCOC(=O)c1ccc2c(c1OC)B(O)OC2 [Compound 79, (4-methoxy-4-oxo-but-2-ynyl) 1-hydroxy-7-methoxy-3H-2,1-benzoxaborole-6-carboxylate]
≥ 80%: inhibition of growth at 20 ppm (Pythium ultimum) | inhibition of growth at 20 ppm [1] | inhibition of growth at 20 ppm [2] | inhibition of growth at 20 ppm (Gaeumannomyces graminis) | inhibition of growth at 20 ppm [3] | inhibition of growth at 20 ppm (Sclerotinia sclerotiorum) | inhibition of growth at 20 ppm [4] | inhibition of growth at 20 ppm [5]

COc1c(C(=O)OCCc2scnc2C)ccc2c1B(O)OC2 [Compound 84, 2-(4-methylthiazol-5-yl)ethyl 1-hydroxy-7-methoxy-3H-2,1-benzoxaborole-6-carboxylate]
≥ 80%: inhibition of growth at 20 ppm (Pythium ultimum) | inhibition of growth at 20 ppm [1] | inhibition of growth at 20 ppm (Gaeumannomyces graminis) | inhibition of growth at 20 ppm [3] | inhibition of growth at 20 ppm [4]

CCN(CC)C(=O)COC(=O)c1ccc2c(c1OC)B(O)OC2 [Compound 94, [2-(diethylamino)-2-oxo-ethyl] 1-hydroxy-7-methoxy-3H-2,1-benzoxaborole-6-carboxylate]
≥ 80%: inhibition of growth at 20 ppm (Pythium ultimum) | inhibition of growth at 20 ppm [1] | inhibition of growth at 20 ppm [2] | inhibition of growth at 20 ppm (Gaeumannomyces graminis) | inhibition of growth at 20 ppm [3] | inhibition of growth at 20 ppm (Sclerotinia sclerotiorum) | inhibition of growth at 20 ppm [4] | inhibition of growth at 20 ppm [5]

CCC1=NC(C)(COC(=O)c2ccc3c(c2OC)B(O)OC3)CO1 (stereo not shown) [Compound 99, (2-ethyl-4-methyl-5H-oxazol-4-yl)methyl 1-hydroxy-7-methoxy-3H-2,1-benzoxaborole-6-carboxylate]
≥ 80%: inhibition of growth at 20 ppm (Pythium ultimum) | inhibition of growth at 20 ppm [1] | inhibition of growth at 20 ppm [2] | inhibition of growth at 20 ppm (Gaeumannomyces graminis) | inhibition of growth at 20 ppm [3] | inhibition of growth at 20 ppm (Sclerotinia sclerotiorum) | inhibition of growth at 20 ppm [4] | inhibition of growth at 20 ppm [5]

CC#CCCOC(=O)c1ccc2c(c1OC)B(O)OC2 [Compound 105, pent-3-ynyl 1-hydroxy-7-methoxy-3H-2,1-benzoxaborole-6-carboxylate]
≥ 80%: inhibition of growth at 20 ppm (Pythium ultimum) | inhibition of growth at 20 ppm [1] | inhibition of growth at 20 ppm [2] | inhibition of growth at 20 ppm (Gaeumannomyces graminis) | inhibition of growth at 20 ppm [3] | inhibition of growth at 20 ppm [4]

COc1c(C(=O)OCCc2ccccc2)ccc2c1B(O)OC2 [Compound 110, phenethyl 1-hydroxy-7-methoxy-3H-2,1-benzoxaborole-6-carboxylate]
≥ 80%: inhibition of growth at 20 ppm (Pythium ultimum) | inhibition of growth at 20 ppm [1] | inhibition of growth at 20 ppm [2] | inhibition of growth at 20 ppm (Gaeumannomyces graminis) | inhibition of growth at 20 ppm [3] | inhibition of growth at 20 ppm [4]

COc1c(C(=O)OC(C)CCc2ccccc2)ccc2c1B(O)OC2 (stereo not shown) [Compound 130, (1-methyl-3-phenyl-propyl) 1-hydroxy-7-methoxy-3H-2,1-benzoxaborole-6-carboxylate]
≥ 80%: inhibition of growth at 20 ppm (Pythium ultimum) | inhibition of growth at 20 ppm [2] | inhibition of growth at 20 ppm (Gaeumannomyces graminis) | inhibition of growth at 20 ppm [3] | inhibition of growth at 20 ppm [4] | inhibition of growth at 20 ppm [5]

COc1c(C(=O)OCC#Cc2ccccc2)ccc2c1B(O)OC2 [Compound 132, 3-phenylprop-2-ynyl 1-hydroxy-7-methoxy-3H-2,1-benzoxaborole-6-carboxylate]
≥ 80%: inhibition of growth at 20 ppm (Pythium ultimum) | inhibition of growth at 20 ppm [2] | inhibition of growth at 20 ppm (Gaeumannomyces graminis) | inhibition of growth at 20 ppm [3] | inhibition of growth at 20 ppm [4] | pest or weed control at 200 ppm [6]
